Data from patent publication EP0791056B1, “LIPID-CLEAVAGE ENZYME COMPLEX” (priority 1994, dated 1996).
Where “and” joins values, the source holds several entries; their conditions need not be identical. Equal entries are not always repeated.

Assays:
LCE [1] = experiment: Substrate cleavage by LCE; assay type: biochemical; details: cleavage to drug monophosphate and DMDOP
From the text: Das Enzym wird vorzugsweise aus humanen peripheren Blutleukozyten, die zuvor durch PHA oder andere Stimulantien (z.B. Cytokine, etc.) aktiviert wurden, oder aus murinen Nierenzellen isoliert. Aus vorläufigen Untersuchungen ergibt sich ein Molekulargewicht von etwa 120.000 - 160.000, bestimmt nach der SDS-PAGE-Methode. Zellen, die dieses Enzym enthalten, können auf einfache Weise dadurch identifiziert werden, indem sie unter geeigneten Testbedingungen mit einer Lösung von AZT-DMDOPE oder FLT-DMDOPE versetzt werden und die Spaltprodukte AZT-monophosphat bzw. FLT-monophosphat oder DMDOP nachgewiesen werden, beispielsweise durch dünnschichtchromatographische Methoden oder im Fall von radioaktiv markierten Proben durch szintillatographische Verfahren (siehe Beispiele 4 - 7). Im Gegensatz zu den biochemisch verwandten Phospholipasen C oder -D wird das LCE nicht durch bekannte Inhibitoren von Phospholipase C oder -D gehemmt oder durch Aktivatoren von Phospholipase C oder -D aktiviert. Im Gegensatz zu Phospholipase C wird das Enzym durch die Substanz D 609 (Tricyclodecan-9-yl-xanthogenat; C11H15OS2 K) aktiviert, während D 609 Phospholipase C inhibiert.

LCE [2] = experiment: LCE assay: cleavage of [14C]-AZT-DMDOPE/AZT-DMDOPE to DMDOP by fractions of human blood cells; assay type: biochemical; details: for Spezifische Aktivität: n = 4; for spezifische LCE-Aktivität / AZT-DMDOPE-spaltende Aktivität (spezifische Aktivität des LCE): n = 6; for Km / vmax: membrane fraction 0.068 mg/Ansatz
Protocol: Das Pipettierschema ist in der folgenden Tabelle angegeben. Tabelle
Zur Untersuchung der enzymatischen Spaltung in Abhängigkeit von der Substratkonzentration wurde eine Substratstammlösung von 0.98 nmol [^14C]-AZT-DMDOPE und 0.7 nmol AZT-DMDOPE/80 µl Aqua bidest. im LCE-Assay angesetzt. Die verschiedenen Substratkonzentrationen im LCE-Assay wurden durch kontinuierliche Verdopplung bzw. Halbierung des Volumens an Substratlösung eingestellt. Die Ansätze wurden in Glasröhrchen (5 ml) vorgelegt und durch Zugabe der Substratlösung gestartet. Die Inkubation wurde bei 37 °C im Wasserbad unter leichtem Schütteln durchgeführt.
Die Reaktionsansätze des LCE-Assays wurden nach entsprechender Inkubationszeit dem Wasserbad entnommen, und die Reaktion durch Zugabe von 750 µl 2-Propanol gestoppt. Nach gründlicher Durchmischung wurden die Ansätze anschließend mit 700 µl auf Raumtemperatur erwärmtem n-Heptan versetzt. Die Ansätze wurden erneut für 30 sec gut gemischt und zur Beschleunigung der Phasentrennung in der Minifuge T bei 3200 rpm für 15 min bei Raumtemperatur zentrifugiert. Anschließend wurden 500 µl der oberen Phase (n-Heptan) entnommen und in neue Glasröhrchen (5 ml) mit 10 mg Kieselgel 60 H und 200 µl n-Heptan überführt. Die Ansätze wurden für 30 sec gut durchmischt und zur Sedimentation des Kieselgels für 10 min unter oben genannten Bedingungen zentrifugiert. Vom Überstand wurden anschließend 500 µl entnommen und mit 3 ml Szintillationsflüssigkeit versetzt. Die Messung der Radioaktivität erfolgte für 4 min im Flüssigkeits-Szintillations-Analysator. Zur Bestimmung des Absolutwertes an Radioaktivität wurden 200 µl der Substratlösung mit 3 ml Szintillationsflüssigkeit versetzt und unter gleichen Bedingungen im Flüssigkeits-Szintillations-Analysator gemessen.
Für diese Untersuchungen ist ein Enzym-Assay etabliert, in dem AZT-DMDOPE und [^14C]-AZT-DMDOPE als Substrat eingesetzt wurde (Beispiel 6). […] Bei substratabhängigen Umsetzungen wurde eine Stammlösung von 0.98 nmol [^14C]-AZT-DMDOPE und 0.7 nmol AZT-DMDOPE /80 µl eingesetzt. Die verschiedenen Substratkonzentrationen wurden anschließend durch kontinuierliche Verdopplung bzw. Halbierung des Volumens an Substratlösung eingestellt.
Die Quantifizierung der enzymatischen Spaltung von AZT-DMDOPE wurde durch eine zweistufge Extraktion des Metaboliten DMDOP mit n-Heptan und anschließender Adsorption von Resten des Substrates AZT-DMDOPE an Kieselgel 60 H durchgeführt. Hierbei wurden die Reaktionsansätze mit 2-Propanol und n-Heptan versetzt. wobei sich das im Vergleich zum Substrat unpolare DMDOP in der n-Heptan-Phase anreichert. Die n-Heptan-Phase wurde dann mit Kieselgel 60 H versetzt, wobei Reste des Substrates AZT-DMDOPE adsorbiert werden. Die n-Heptan-Phase wurde anschließend durch Zentrifugation vom Kieselgel separiert, in 3 ml Aqua luma überführt und die in ihr enthaltene Menge an radioaktiv markiertem DMDOP im Flüssigkeits-Szintillations-Analysator über einen Zeitraum von 5 min bestimmt. Aus diesen Ergebnissen konnte die prozentuale Umsetzung des Substrates AZT-DMDOPE zu DMDOP und die spezifische Aktivität des LCE errechnet werden. Als spezifische Aktivität wurde hierbei die Menge an DMDOP bezeichnet die pro 1 mg Protein der eingesetzten Zellpräparationen pro Minute gebildet wurde.
Nach Bestimmung der Proteinkonzentration in Zellhomogenaten, Zytosol- und Membranfraktionen mit Hilfe des Bicinchoninsäure(BCS)-Tests wurden 0.025 - 0.20 mg Protein/Ansatz eingesetzt.
Zur Isolierung der Plasmamembranen wurden 2 ml einer Zellsuspension stimulierter humaner PBL mit einer Zelldichte von 2.5 x 10^8 Zellen/ml durch dreimaliges Einfrieren und Auftauen aufgeschlossen und durch Zentrifugation im Percoll-Dichtegradienten fraktioniert.

[3] = system: Phospholipase D, Typ I, aus Kohl; experiment: Enzymatic cleavage of AZT-DMDOPE, detection of cleavage products by thin-layer chromatography; assay type: biochemical; details: 10 mg AZT-DMDOPE in 0,1 M Tris, 0,1 mg enzyme, 15 h + 6 h at 37 °C; at the height of the lipid phosphate
Protocol: (§1) 10 mg (3'-Desoxy-3'-azidothymidin)-5'-phosphorsäure-(3-dodecyl-mercapto-2-decyl-oxy)-propylester (AZT-DMDOPE) werden in 0,5 ml 0,1 M Tris-Pufferlösung suspendiert und nach Zugabe des Enzyms (0,5 mg bei Phosphodiesterase und 0,1 mg bei Phospholipase/Nuclease) 15 Stunden bei 37 °C inkubiert. Anschließend wird die Lösung dünnschichtchromatographisch untersucht. Nach Zugabe von 5 Tropfen gesättigter NaHCO3-Lösung wurde weitere 6 Stunden bei 37 °C inkubiert und anschließend die Lösung dünnschichtchromatographisch untersucht.
(§2) Durch Dünnschichtchromatographie mit verschiedenen Elutionsmitteln wurde die Lösung hinsichtlich der Bildung der möglichen Spaltprodukte (AZT, AZT-monophosphat, DMDOP und Lipidmonophosphat) untersucht.
(§3) • a) Phospholipase C aus Bacillus cereus, 2000 U/0,5 ml, Boehringer Mannheim GmbH • b) Phospholipase D, Typ I, aus Kohl, 150 - 300 U/mg, Sigma • c) Phosphodiesterase aus Kalbsmilz, 2 U/mg, Boehringer Mannheim GmbH • d) Phosphodiesterase aus Schlangengift, Boehringer Mannheim GmbH • e) Nuclease aus Staphylococcus aureus, 15 000 U/mg, Boehringer Mannheim GmbH • f) LCE (Lipid-Cleavage-Enzyme)

[4] = system: LCE (Lipid-Cleavage-Enzyme); experiment: as above; assay type: biochemical; details: 10 mg AZT-DMDOPE in 0,1 M Tris, 15 h + 6 h at 37 °C
Protocol: as §1, §2, §3

[5] = system: nichtstimulierten humanen PBL; experiment: Intracellular concentrations of AZT and AZT nucleotides (radioimmunoassay) in non-stimulated human PBL; assay type: in vitro ADME
From the text: AZT wurden humane PBL aus "Buffy coat" isoliert.

[6] = humane Monozyten/Makrophagen (stimulierte Monozyten), 37 °C, 2 h
[7] = nichtstimulierte humane PBL, 37 °C, 2 h
[8] = stimulierte humane PBL, 37 °C, 2 h

**Q.** With `CCCCCCCCCCCCSCC(COP(=O)(O)OC[C@H]1O[C@@H](n2cc(C)c(=O)[nH]c2=O)C[C@@H]1N=[N+]=[N-])OCCCCCCCCCC` (stereo partly shown) [AZT-DMDOPE, (3'-Desoxy-3'-azidothymidin)-5'-phosphorsäure-(3-dodecyl-mercapto-2-decyloxy)-propylester] as the molecule, how does the “Spaltung durch LCE” value (LCE [1]) read?
**A.** The value was “spaltet”.

**Q.** And the “höchste spezifische LCE-Aktivität” value (LCE [2]; Fraktion 8 (plasma membrane enriched) of Percoll gradient, stimulierte humane PBL, 0.05 mg protein/Ansatz, 37 °C, 2 h)?
**A.** Its value is 4.40 pmol mg^-1 min^-1 min.

**Q.** And the “Spezifische Aktivität” value (LCE [2]; Membranfraktion humaner Monozyten isolated in hypertonic density gradient, linear range)?
**A.** The value was 3.2 + 0.60 pmol mg^-1 min^-1.

**Q.** What about the “Spezifische Aktivität” value (LCE [2]; Membranfraktion humaner Monozyten/Makrophagen (stimulated by adherence)) of the same molecule?
**A.** The value was 8.8 ± 0.26 pmol/mg/min.

**Q.** And the “spezifische LCE-Aktivität” value (LCE [2]; Membranfraktion nichtstimulierter humaner PBL, calculated from linear range)?
**A.** The value was 1.45 ± 0.32 pmol/mg/min.

**Q.** What about the “spezifische LCE-Aktivität” value (LCE [2]; Membranfraktionen stimulierter humaner PBL, 2 h 37 °C) of the same molecule?
**A.** The value was 14.23 ± 0.70 pmol/mg/min and 14.23 ± 0.7 pmol/mg/min.

**Q.** What about the “AZT-DMDOPE-spaltende Aktivität (spezifische Aktivität des LCE)” value (LCE [2]; Zellhomogenate stimulierter humaner PBL, 2 h 37 °C) of the same molecule?
**A.** The value was 6.48 ± 0.38 pmol/mg/min.

**Q.** What about the “AZT-DMDOPE-spaltende Aktivität (spezifische Aktivität des LCE)” value (LCE [2]; Zytosolfraktionen stimulierter humaner PBL, 2 h 37 °C) of the same molecule?
**A.** Its value is 1.65 ± 0.40 pmol/mg/min.

**Q.** What about the “spezifische Aktivitäten” value (LCE [2]; all further fractions of Percoll gradient, stimulierte humane PBL, 0.05 mg protein/Ansatz, 37 °C, 2 h) of the same molecule?
**A.** Its value is 1.10 to 1.90 pmol/mg/min.

**Q.** And the Km (LCE [2]; humane Monozyten, 37 °C, 2 h)?
**A.** Its Km is 12.1 ± 4.13 µM.

**Q.** What about the vmax (LCE [2]; humane Monozyten, 37 °C, 2 h) of the same molecule?
**A.** Its vmax is 1.61 ± 0.37 pmol/mg/min.

**Q.** What about the Km (LCE [2]; [6]) of the same molecule?
**A.** The Km was 4.63 ± 0.45 µM.

**Q.** And the vmax (LCE [2]; [6])?
**A.** Its vmax is 9.09 ± 0.44 pmol/mg/min.

**Q.** And the Km (LCE [2]; [7])?
**A.** The Km was 5.51 ± 0.99 µM.

**Q.** What about the vmax (LCE [2]; [7]) of the same molecule?
**A.** The vmax was 2.03 ± 0.19 pmol/mg/min.

**Q.** And the Km (LCE [2]; [8])?
**A.** Its Km is 2.26 ± 0.16 µM.

**Q.** What about the vmax (LCE [2]; [8]) of the same molecule?
**A.** Its vmax is 15.29 ± 0.37 pmol/mg/min.

**Q.** What about the “Fluoreszenzauslöschung DC” value [3] of the same molecule?
**A.** Its value is “schwach”.

**Q.** What about the “Fluoreszenzauslöschung DC” value [4] of the same molecule?
**A.** Its value is “positiv”.

**Q.** What about the “maximale intrazelluläre Konzentrationen an AZT und AZT-Nukleotiden” value ([5]; 1 µg AZT-DMDOPE/ml) of the same molecule?
**A.** Its value is 0.62 ng/10^6 Zellen.

**Q.** What about the “maximale intrazelluläre Konzentrationen an AZT und AZT-Nukleotiden” value ([5]; 10 µg AZT-DMDOPE/ml) of the same molecule?
**A.** Its value is 4.74 ng/10^6 Zellen.

**Q.** What about the “intrazelluläre Konzentrationen an AZT und AZT-Nukleotiden im Vergleich zur äquipotenten Konzentration an AZT” value ([5]; whole incubation time) of the same molecule?
**A.** The value was “größer”.
